According to patent publication US20210045385A1, “PYRIDAZINONE-SUBSTITUTED KETOXIMES AS HERBICIDES” (FMC Corporation, priority 2018, published 2021):

Columns and labels:
Assay type in all cases: in vivo
[1] = tested on: ragweed (common ragweed, Ambrosia artemisiifolia); assay: Test C preemergence, visual plant response rating
Outline: (§1)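 Compounds in a non-phytotoxic solvent with surfactant were applied as a directed soil spray preemergence or to 2–10 cm, one- to two-leaf plants postemergence, in loam–sand soil. After about 10 d in a greenhouse, injury was visually rated against untreated controls on a 0–100 scale (100 = complete control).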

[2] = tested on: kochia (Bassia scoparia); assay: Test C preemergence, visual plant response rating
Outline: as §1

[3] = tested on: pigweed (Amaranthus retroflexus); assay: Test C preemergence, visual plant response rating
Outline: as §1

[4] = tested on: barnyardgrass (Echinochloa crus-galli); assay: Test C preemergence, visual plant response rating
Outline: as §1

[5] = tested on: foxtail, giant (giant foxtail, Setaria faberi); assay: Test C preemergence, visual plant response rating
Outline: as §1

[6] = tested on: Italian ryegrass (Lolium mutiflorum); assay: Test C preemergence, visual plant response rating
Outline: as §1

[7] = tested on: barnyardgrass (Echinochloa crus-galli); assay: Test D flooded paddy test, visual plant response rating; details: 250 g ai/ha, scale 0 to 100 (0 no effect, 100 complete control), 13 to 15 d
Outline: (§2)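 Plants were grown to the 2-leaf stage, pots flooded to 3 cm above soil, and compound applied directly into the paddy water, with the depth held throughout. After 13 to 15 d in a greenhouse, response was rated visually against untreated controls on a 0–100 scale (0 no effect, 100 complete control).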

[8] = tested on: duck salad (Heteranthera limosa); assay: as above; details: 250 g ai/ha, scale 0 to 100 (0 no effect, 100 complete control), 13 to 15 d
Outline: as §2

[9] = tested on: sedge umbrella (small-flower umbrella sedge, Cyperus difformis); assay: as above; details: 250 g ai/ha, scale 0 to 100 (0 no effect, 100 complete control), 13 to 15 d
Outline: as §2

[10] = tested on: rice (Oryza sativa); assay: as above; details: 250 g ai/ha, scale 0 to 100 (0 no effect, 100 complete control), 13 to 15 d
Outline: as §2

[11] = tested on: blackgrass (Alopecurus myosuroides); assay: Test C postemergence, visual plant response rating
Outline: as §1

[12] = tested on: ragweed (common ragweed, Ambrosia artemisiifolia); assay: Test C postemergence, visual plant response rating
Outline: as §1

[13] = tested on: kochia (Bassia scoparia); assay: Test C postemergence, visual plant response rating
Outline: as §1

[14] = tested on: pigweed (Amaranthus retroflexus); assay: Test C postemergence, visual plant response rating
Outline: as §1

[15] = tested on: corn (Zea mays); assay: Test C postemergence, visual plant response rating
Outline: as §1

[16] = tested on: wheat (Triticum aestivum); assay: Test C postemergence, visual plant response rating
Outline: as §1

[17] = tested on: barnyardgrass (Echinochloa crus-galli); assay: Test C postemergence, visual plant response rating
Outline: as §1

[18] = tested on: foxtail, giant (giant foxtail, Setaria faberi); assay: Test C postemergence, visual plant response rating
Outline: as §1

[19] = tested on: Italian ryegrass (Lolium mutiflorum); assay: Test C postemergence, visual plant response rating
Outline: as §1

[20] = tested on: galium (catchweed bedstraw, Galium aparine); assay: Test C postemergence, visual plant response rating
Outline: as §1

[21] = Test C, 31 g ai/ha, 0 is no effect, 100 is complete control
[22] = Test C, postemergence, 125 g ai/ha
[23] = Test C, 125 g ai/ha, 0 is no effect, 100 is complete control
[24] = Test C, postemergence, 31 g ai/ha

SMILES	Ragweed plant response rating (0 to 100 scale) [1, 21]	Kochia plant response rating (0 to 100 scale) [2, 21]	Pigweed plant response rating (0 to 100 scale) [3, 21]	Barnyardgrass plant response rating (0 to 100 scale) [4, 21]	Foxtail, Giant plant response rating (0 to 100 scale) [5, 21]	Ryegrass, Italian plant response rating (0 to 100 scale) [6, 21]	Plant response rating, Barnyardgrass (Flood) [7]	Plant response rating, Ducksalad (Flood) [8]	Plant response rating, Sedge, Umbrella (Flood) [9]	Plant response rating, Rice (Flood) [10]	Blackgrass plant response rating (0 to 100 scale) [11, 22]	Ragweed plant response rating (0 to 100 scale) ([12]; Postemergence, 31 g ai/ha)	Ragweed plant response rating (0 to 100 scale) [12, 22]	Kochia plant response rating (0 to 100 scale) [13, 22]	Pigweed plant response rating (0 to 100 scale) ([14]; Postemergence, 31 g ai/ha)	Pigweed plant response rating (0 to 100 scale) [14, 22]	Corn plant response rating (0 to 100 scale) [15, 22]	Wheat plant response rating (0 to 100 scale) ([16]; Postemergence, 31 g ai/ha)	Wheat plant response rating (0 to 100 scale) [16, 22]	Barnyardgrass plant response rating (0 to 100 scale) [17, 22]	also measured
Cc1nn(C)c(=O)c(/C(=N/OC(C)C)c2cc(Cl)cc(Cl)c2F)c1O [Compound 179]	90	90	100	90	100	100	95	80	95	70	90	100	100	100	100	100	80	80	100	80	Ragweed plant response rating (0 to 100 scale) ([1]; 125 g ai/ha): 100; Kochia plant response rating (0 to 100 scale) ([2]; 125 g ai/ha): 90; Pigweed plant response rating (0 to 100 scale) ([3]; 125 g ai/ha): 100; Barnyardgrass plant response rating (0 to 100 scale) ([4]; 125 g ai/ha): 100; Foxtail, Giant plant response rating (0 to 100 scale) ([5]; 125 g ai/ha): 100; Ryegrass, Italian plant response rating (0 to 100 scale) ([6]; 125 g ai/ha): 100; Blackgrass plant response rating (0 to 100 scale) ([11]; Postemergence, 31 g ai/ha): 80; Kochia plant response rating (0 to 100 scale) ([13]; Postemergence, 31 g ai/ha): 80; Corn plant response rating (0 to 100 scale) ([15]; Postemergence, 31 g ai/ha): 30; Barnyardgrass plant response rating (0 to 100 scale) ([17]; Postemergence, 31 g ai/ha): 90; Foxtail, Giant plant response rating (0 to 100 scale) ([18]; Postemergence, 31 g ai/ha): 90; Foxtail, Giant plant response rating (0 to 100 scale) [18, 22]: 100; Ryegrass, Italian plant response rating (0 to 100 scale) ([19]; Postemergence, 31 g ai/ha): 90; Ryegrass, Italian plant response rating (0 to 100 scale) [19, 22]: 100; Galium plant response rating (0 to 100 scale) ([20]; Postemergence, 31 g ai/ha): 100; Galium plant response rating (0 to 100 scale) [20, 22]: 100
C#CCO/N=C(/c1cccc(Br)c1)c1c(O)c(C)nn(C)c1=O [Compound 277]	20	0	10	0	10	10	0	0	0	0	80	40	90	70	40	60	30	30	70	60	Ragweed plant response rating (0 to 100 scale) [1, 23]: 80; Kochia plant response rating (0 to 100 scale) [2, 23]: 90; Pigweed plant response rating (0 to 100 scale) [3, 23]: 70; Barnyardgrass plant response rating (0 to 100 scale) [4, 23]: 30; Foxtail, Giant plant response rating (0 to 100 scale) [5, 23]: 30; Ryegrass, Italian plant response rating (0 to 100 scale) [6, 23]: 100; Blackgrass plant response rating (0 to 100 scale) ([11]; Postemergence, 31 g ai/ha): 30; Kochia plant response rating (0 to 100 scale) ([13]; Postemergence, 31 g ai/ha): 50; Corn plant response rating (0 to 100 scale) ([15]; Postemergence, 31 g ai/ha): 10; Barnyardgrass plant response rating (0 to 100 scale) ([17]; Postemergence, 31 g ai/ha): 20; Foxtail, Giant plant response rating (0 to 100 scale) ([18]; Postemergence, 31 g ai/ha): 10; Foxtail, Giant plant response rating (0 to 100 scale) [18, 22]: 60; Ryegrass, Italian plant response rating (0 to 100 scale) ([19]; Postemergence, 31 g ai/ha): 40; Ryegrass, Italian plant response rating (0 to 100 scale) [19, 22]: 70; Galium plant response rating (0 to 100 scale) ([20]; Postemergence, 31 g ai/ha): 70; Galium plant response rating (0 to 100 scale) [20, 22]: 80
CO/N=C(\c1cc(Cl)cc(Br)c1)c1c(O)c(C)nn(C)c1=O [Compound 157]	100	50	10	70	80	90	0	0	0	0	20	70	100	100	20	60	30	0	60	80	Ragweed plant response rating (0 to 100 scale) ([1]; 125 g ai/ha): 100; Kochia plant response rating (0 to 100 scale) ([2]; 125 g ai/ha): 100; Pigweed plant response rating (0 to 100 scale) ([3]; 125 g ai/ha): 40; Barnyardgrass plant response rating (0 to 100 scale) ([4]; 125 g ai/ha): 90; Foxtail, Giant plant response rating (0 to 100 scale) ([5]; 125 g ai/ha): 100; Ryegrass, Italian plant response rating (0 to 100 scale) ([6]; 125 g ai/ha): 100; Blackgrass plant response rating (0 to 100 scale) [11, 24]: 10; Kochia plant response rating (0 to 100 scale) [13, 24]: 80; Corn plant response rating (0 to 100 scale) [15, 24]: 10; Barnyardgrass plant response rating (0 to 100 scale) [17, 24]: 30; Foxtail, Giant plant response rating (0 to 100 scale) [18, 24]: 60; Foxtail, Giant plant response rating (0 to 100 scale) [18, 22]: 90; Ryegrass, Italian plant response rating (0 to 100 scale) ([19]; Postemergence, 31 g ai/ha): 70; Ryegrass, Italian plant response rating (0 to 100 scale) [19, 22]: 100; Galium plant response rating (0 to 100 scale) [20, 24]: 90; Galium plant response rating (0 to 100 scale) [20, 22]: 100
